Reference: the supplement of paper PMC11061612

Assays:
Test in all cases: combination Emax (second highest fraction inhibited in the dose matrix, 72 h); higher = more inhibition; extreme values may be limits of the assay
[1] = test system: AMO-1 (Plasma Cell Myeloma)
Method in brief: (§1)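 After 24 hours at 37°C and 5% CO2 in 1536-well plates, cells in DMEM/F12 or RPMI plus 10% FBS received two-drug dose matrices for 72 hours. Viability came from CellTiter-Glo 2.0 luminescence and was scaled as inhibition, anchored at 0 by vehicle wells and at 1 by blank wells. Combination Emax is taken as the second-highest inhibition in the matrix, and Bliss excess as the observed combination effect less EA + EB − EA·EB, with EA and EB the single-agent effects.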

[2] = test system: BT-549 (Breast Carcinoma)
Method in brief: as §1

[3] = test system: Caov-4 (Ovarian Carcinoma)
Method in brief: as §1

[4] = test system: EoL-1-cell (Acute Myeloid Leukemia)
Method in brief: as §1

[5] = test system: HGC-27 (Gastric Carcinoma)
Method in brief: as §1

[6] = test system: KARPAS-299 (T-Cell Non-Hodgkin's Lymphoma)
Method in brief: as §1

[7] = test system: KMOE-2 (Acute Myeloid Leukemia)
Method in brief: as §1

[8] = test system: MIA-PaCa-2 (Pancreatic Carcinoma)
Method in brief: as §1

[9] = test system: MLMA (Other Blood Carcinomas)
Method in brief: as §1

NB69 (Neuroblastoma) = test system: NB69 (Neuroblastoma)
Method in brief: as §1

[10] = test system: NCI-H1915 (Non-Small Cell Lung Carcinoma)
Method in brief: as §1

[11] = test system: NCI-H727 (Other Solid Carcinomas)
Method in brief: as §1

[12] = test system: NUGC-3 (Gastric Carcinoma)
Method in brief: as §1

[13] = test system: OVCAR-4 (Ovarian Carcinoma)
Method in brief: as §1

[14] = test system: PANC-04-03 (Pancreatic Carcinoma)
Method in brief: as §1

PWR-1E (Non-Cancerous) = test system: PWR-1E (Non-Cancerous)
Method in brief: as §1

[15] = test system: RF-48 (B-Cell Non-Hodgkin's Lymphoma)
Method in brief: as §1

UACC-62 (Melanoma) = test system: UACC-62 (Melanoma)
Method in brief: as §1

[16] = test system: VA-ES-BJ (Other Solid Carcinomas)
Method in brief: as §1

YH-13 (Glioblastoma) = test system: YH-13 (Glioblastoma)
Method in brief: as §1

Row | SMILES | combination Emax [1] | combination Emax [2] | combination Emax [3] | combination Emax [4] | combination Emax [5] | combination Emax [6] | combination Emax [7] | combination Emax [8] | combination Emax [9] | combination Emax (NB69 (Neuroblastoma)) | combination Emax [10] | combination Emax [11] | combination Emax [12] | combination Emax [13] | combination Emax [14] | combination Emax (PWR-1E (Non-Cancerous)) | combination Emax [15] | combination Emax (UACC-62 (Melanoma)) | combination Emax [16] | combination Emax (YH-13 (Glioblastoma))
1 | Cn1cnc2c(F)c(Nc3ccc(Br)cc3Cl)c(C(=O)NOCCO)cc21 [Selumetinib] + C=CCn1c(=O)c2cnc(Nc3ccc(N4CCN(C)CC4)cc3)nc2n1-c1cccc(C(C)(C)O)n1 [AZD1775] (first compound max 10 µM, partner max 1 µM) | 0.917 | 0.715 | 0.764 | 1 | 0.536 | 0.851 | 1 | 0.767 | 0.769 | 0.944 | 0.846 | 0.614 | 0.639 | 0.546 | 0.456 | 0.34 | 0.489 | 0.827 | 0.468 | 0.329
2 | CC1(C)CCC(CN2CCN(c3ccc(C(=O)NS(=O)(=O)c4ccc(NCC5CCOCC5)c([N+](=O)[O-])c4)c(Oc4cnc5[nH]ccc5c4)c3)CC2)=C(c2ccc(Cl)cc2)C1 [Venetoclax] + Cn1cnc2c(F)c(Nc3ccc(Br)cc3Cl)c(C(=O)NOCCO)cc21 [Selumetinib] (first compound max 1 µM, 7x7, partner max 3 µM) | 0.806 | 0.106 | 0.364 | 1 | 0.142 | 0.812 | 0.992 | 0.403 | 0.93 | 0.919 | 0.423 | 0.601 | 0.392 | 0.209 | 0.354 | 0.0808 | 0.286 | 0.767 | 0.123 | 0.181
3 | CC1(C)CCC(CN2CCN(c3ccc(C(=O)NS(=O)(=O)c4ccc(NCC5CCOCC5)c([N+](=O)[O-])c4)c(Oc4cnc5[nH]ccc5c4)c3)CC2)=C(c2ccc(Cl)cc2)C1 [Venetoclax] + CCN(CCO)CCCOc1ccc2c(Nc3cc(CC(=O)Nc4cccc(F)c4)[nH]n3)ncnc2c1 [AZD2811] (first compound max 1 µM, 7x7, partner max 1 µM) | 0.816 | 0.336 | 0.263 | 1 | 0.809 | 0.818 | 0.293 | 0.37 | 0.841 | 0.777 | 0.224 | 0.317 | 0.298 | 0.333 | 0.196 | 0.455 | 0.43 | 0.28 | 0.359 | 0.576
4 | C=CCn1c(=O)c2cnc(Nc3ccc(N4CCN(C)CC4)cc3)nc2n1-c1cccc(C(C)(C)O)n1 [AZD1775] + C1CN(CCC1(C(=O)N[C@@H](CCO)C2=CC=C(C=C2)Cl)N)C3=NC=NC4=C3C=CN4 [Capivasertib] (first compound max 3 µM, partner max 3 µM) | 0.945 | 0.638 | 0.754 | 1 | 0.886 | 0.947 | 0.938 | 0.585 | 0.894 | 0.942 | 0.657 | 0.667 | 0.715 | 0.672 | 0.571 | 0.988 | 0.86 | 0.458 | 0.645 | 0.519
5 | C=CCn1c(=O)c2cnc(Nc3ccc(N4CCN(C)CC4)cc3)nc2n1-c1cccc(C(C)(C)O)n1 [AZD1775] + C[C@@H]1COCCN1C2=NC(=NC(=C2)C3(CC3)[S@](=N)(=O)C)C4=C5C=CNC5=NC=C4 [AZD6738] (first compound max 1 µM, partner max 10 µM) | 0.922 | 0.808 | 0.902 | 1 | 0.966 | 0.965 | 0.92 | 0.956 | 0.935 | 0.971 | 0.658 | 0.654 | 0.834 | 0.843 | 0.63 | 0.913 | 0.669 | 0.622 | 0.822 | 0.69
6 | COc1nnc2ccc(N3CCC(c4ccc(OCCN5CCN(C)C(=O)[C@H]5C)cc4)CC3)nn12 [AZD5153] + CC1(C)CCC(CN2CCN(c3ccc(C(=O)NS(=O)(=O)c4ccc(NCC5CCOCC5)c([N+](=O)[O-])c4)c(Oc4cnc5[nH]ccc5c4)c3)CC2)=C(c2ccc(Cl)cc2)C1 [Venetoclax] (first compound max 1 µM, 7x7, partner max 1 µM) | 0.907 | 0.518 | 0.543 | 1 | 0.777 | 0.781 | 0.847 | 0.878 | 0.912 | 0.952 | 0.432 | 0.34 | 0.464 | 0.444 | 0.445 | 0.61 | 0.53 | 0.605 | 0.5 | 0.656
7 | C=CCn1c(=O)c2cnc(Nc3ccc(N4CCN(C)CC4)cc3)nc2n1-c1cccc(C(C)(C)O)n1 [AZD1775] + O=C(c1cc(Cc2n[nH]c(=O)c3ccccc23)ccc1F)N1CCN(C(=O)C2CC2)CC1 [Olaparib] (first compound max 1 µM, partner max 10 µM) | 0.728 | 0.551 | 0.779 | 0.999 | 0.799 | 0.93 | 0.905 | 0.737 | 0.882 | 0.893 | 0.668 | 0.368 | 0.547 | 0.472 | 0.495 | 0.562 | 0.651 | 0.468 | 0.307 | 0.428
8 | COc1nnc2ccc(N3CCC(c4ccc(OCCN5CCN(C)C(=O)[C@H]5C)cc4)CC3)nn12 [AZD5153] + Cn1cnc2c(F)c(Nc3ccc(Br)cc3Cl)c(C(=O)NOCCO)cc21 [Selumetinib] (first compound max 1 µM, 7x7, partner max 10 µM) | 0.928 | 0.518 | 0.706 | 1 | 0.796 | 0.996 | 1 | 0.859 | 0.906 | 1 | 0.732 | 0.678 | 0.649 | 0.492 | 0.548 | 0.777 | 0.362 | 0.947 | 0.481 | 0.546
9 | CC1(C)CCC(CN2CCN(c3ccc(C(=O)NS(=O)(=O)c4ccc(NCC5CCOCC5)c([N+](=O)[O-])c4)c(Oc4cnc5[nH]ccc5c4)c3)CC2)=C(c2ccc(Cl)cc2)C1 [Venetoclax] + COc1cc(Nc2ncc3c(n2)-c2ccc(Cl)cc2C(c2c(F)cccc2OC)=NC3)ccc1C(=O)O [Alisertib] (first compound max 1 µM, 7x7, partner max 10 µM) | 0.868 | 0.529 | 0.447 | 1 | 0.919 | 0.762 | 0.928 | 0.583 | 0.866 | 0.915 | 0.455 | 0.326 | 0.436 | 0.344 | 0.263 | 0.859 | 0.59 | 0.314 | 0.505 | 0.549
10 | NC1(C(=O)N[C@@H](CCO)c2ccc(Cl)cc2)CCN(c2ncnc3[nH]ccc23)CC1 [Capivasertib] + C[C@@H]1COCCN1C2=NC(=NC(=C2)C3(CC3)[S@](=N)(=O)C)C4=C5C=CNC5=NC=C4 [AZD6738] (first compound max 10 µM, 7x7, partner max 10 µM) | 0.903 | 0.511 | 0.825 | 1 | 0.923 | 0.928 | 0.618 | 0.542 | 0.771 | 0.849 | 0.531 | 0.58 | 0.74 | 0.707 | 0.575 | 0.947 | 0.627 | 0.568 | 0.729 | 0.648
11 | Cc1c2c(nn1C)CSCc1cc(n(C)n1)CSc1cc(c3ccccc3c1)OCCCc1c(C(=O)O)n(C)c3c-2c(Cl)ccc13 [AZD5991] + CCN(CCO)CCCOc1ccc2c(Nc3cc(CC(=O)Nc4cccc(F)c4)[nH]n3)ncnc2c1 [AZD2811] (first compound max 1 µM, 7x7, partner max 1 µM) | 1 | 0.575 | 0.743 | 1 | 1 | 0.987 | 0.759 | 0.66 | 0.245 | 0.878 | 0.294 | 0.286 | 0.391 | 0.506 | 0.237 | 0.939 | 0.262 | 0.887 | 0.395 | 0.579
12 | COc1nnc2ccc(N3CCC(c4ccc(OCCN5CCN(C)C(=O)[C@H]5C)cc4)CC3)nn12 [AZD5153] + C=CCn1c(=O)c2cnc(Nc3ccc(N4CCN(C)CC4)cc3)nc2n1-c1cccc(C(C)(C)O)n1 [AZD1775] (first compound max 1 µM, partner max 1 µM) | 0.978 | 0.732 | 0.864 | 1 | 0.839 | 0.919 | 0.971 | 0.882 | 0.938 | 0.99 | 0.678 | 0.431 | 0.715 | 0.583 | 0.484 | 0.886 | 0.558 | 0.577 | 0.724 | 0.592
